According to ChEMBL document CHEMBL3507680, “University of Dundee, Gates Library screen for HepG2 cell viability”:

Test: Human HepG2 cell viability assay in 384 well format
Assay type: toxicity, cell-based
Design: dose 125 nL, time 70.5 hour; cytotoxicity at 70.5 h: concentration not given beside the values
Details: HepG2 cells, read-out: Inhibition

| Structure (SMILES) | cytotoxicity at 70.5 h [%] |
| --- | --- |
| CCOCC1CN(Cc2cnn(C)c2)Cc2cnn(C)c21 (configuration not stated) | -9.88 |
| O=C(C1CCOCC1)N1CC[C@@H](N2CCOCC2)[C@@H]1Cc1ccccc1 | 5.57 |
| O=C(c1cscn1)N1CC[C@H]2C[C@@H](c3ccncn3)O[C@@H]2C1 | 7.77 |
| O=C(c1ccnnc1)N1CC[C@H]2C[C@H](c3ccncn3)O[C@@H]2C1 | 5.3 |
| CC(=O)N1CCCC2(CCN(C(=O)c3ccc(Cl)c(C(F)(F)F)c3)C2)C1 (configuration not stated) | -10.6 |
| COCc1cnc2n1CCN(C(=O)c1ocnc1C)C2C (configuration not stated) | 10.1 |
| Cn1cc(CN2CCOCC3(CCN(C4CCOCC4)C3)C2)cn1 (configuration not stated) | 6.49 |
| O=C(c1ccncc1)N1C[C@@H](OCc2cccnc2)[C@H]2OCCC[C@H]21 | -10.2 |
| COCCCNC(=O)c1ccn(-c2ccc3ccccn23)n1 | -12.6 |
| Cc1nc(CN2CCO[C@@H]3CNCC[C@@H]3C2)cs1 | -5.71 |
| O=C(NCc1ccncc1)C1=NOC2(CCCNC2)C1 (configuration not stated) | 14.2 |
| Cc1cccc(CN2CCn3c(COc4ncccn4)nnc3C2)n1 | 4.18 |
| Cc1ccc(S(=O)(=O)NCC2COCc3c(C)nnn3C2)cc1F (configuration not stated) | 7.81 |
| Cc1ccc(C(=O)N2CCn3c(COCC4CC4)cnc3C2C)s1 (configuration not stated) | -4.86 |
| Cc1occc1C(=O)N1CCn2c(COCC3CC3)cnc2C1C (configuration not stated) | -9.85 |
| CC1c2ncc(COCC3CC3)n2CCN1C(=O)c1ccn(C)n1 (configuration not stated) | -9.47 |
| CC1c2ncc(COCC3CC3)n2CCN1C(=O)c1ccnn1C (configuration not stated) | -10.2 |
| Cc1cc(C(=O)N2CCn3c(COCC4CCCC4)cnc3C2C)on1 (configuration not stated) | -15.4 |
| CN(C)C(=O)CNC(=O)c1ccn(-c2ccc3ccccn23)n1 | -8.61 |
| Cc1cccc(N2CC3(CCN(C(=O)NC(C)C)C3)CC2=O)c1 (configuration not stated) | -9.16 |
| N#Cc1cccc(N2CC3(CCN(C(=O)NC4CC4)C3)CC2=O)c1 (configuration not stated) | -4.14 |
| CC(C)c1nccc([C@@H]2C[C@@H]3CCN(Cc4ccoc4)C[C@H]3O2)n1 | -4.41 |

| Structure (SMILES) | cytotoxicity at 70.5 h [%] |
| --- | --- |
| O=C(NCC1CC1)C1=NOC2(CCN(S(=O)(=O)Cc3ccccc3)C2)C1 (configuration not stated) | -5.14 |
| CNC(=O)[C@H]1C[C@@H]2CN(C(=O)NCCc3ccccc3)C[C@H]1O2 | -12 |
| CN(C)CCO[C@H]1CN(C(=O)c2ccc(C#N)cc2)[C@@H]2COC[C@H]12 | -11 |
| O=C(NCc1ccccc1)[C@H]1C[C@@H]2CN(C(=O)NC3CCCC3)C[C@H]1O2 | 16.8 |
| N#Cc1cccc(N2CC3(CCN(C(=O)C4CC=CC4)C3)CC2=O)c1 (configuration not stated) | -9.81 |
| Cc1ccc(S(=O)(=O)N2CCC3(CC(C(=O)NC4CCC4)=NO3)C2)cc1 (configuration not stated) | 18.4 |
| CC(C)CNC(=O)N1C[C@H]2C[C@H](C(=O)NCc3ccccc3)[C@@H](C1)O2 | 13.9 |
| Cc1noc(C)c1C(=O)N1C[C@@H]2CN(Cc3cccnc3)CCO[C@@H]2C1 | -7.03 |
| Cc1nc([C@@H]2C[C@@H]3CCN(C(=O)Cc4cccc(F)c4)C[C@H]3O2)no1 | -8 |
| O=C(c1cnccn1)N1CCc2onc(Cn3cccn3)c2C1 | -6.72 |
| O=C1NCC2(CCCN(C(=O)c3c[nH]nc3C3CCCCC3)C2)O1 (configuration not stated) | -10.2 |
| CCN1CC2(CCC1=O)CCN(C(=O)c1ccc(C)cc1O)CC2 | -14.7 |
| CN(Cc1cccc(-n2cccn2)c1)c1cc(N2CCCC2)nc(N)n1 | -16.8 |
| COCCCC1(C(=O)O)CCCN(Cc2ccccc2C)C1 (configuration not stated) | -4.89 |
| Cn1cc2ncn(C3CCN(c4ccccc4F)CC3)c(=O)c2n1 | -11 |
| CCC1(CO)CCCN(C(=O)c2ccc(N3CCN(C)CC3)cc2)C1 (configuration not stated) | -4.46 |
| O=C(NCc1ccc(CO)cc1)C1CCOc2ccccc2C1 (configuration not stated) | 4.54 |
| COCc1cn(CC2CCN(Cc3nc(C)c[nH]3)CC2)nn1 | -8.76 |
| Cc1ccsc1C(=O)N1C[C@@H](C(=O)O)[C@H](C(C)C)C1 | 0.968 |
| CC(C)C(C(=O)N1CCC2(CC1)CN(C)C(=O)O2)c1ccccc1 (configuration not stated) | -8.69 |
| CNc1nc(C)cc(N2CCC(C(=O)O)(n3ccc(C(C)C)n3)CC2)n1 | -4.47 |
| CN1CCN(Cc2nnc(C3CCN(S(C)(=O)=O)CC3)n2C)CC1 | -20.6 |

| Structure (SMILES) | cytotoxicity at 70.5 h [%] |
| --- | --- |
| CC(C)Cc1ncc2c(n1)CN(c1cc(NC3CC3)nc(N)n1)C2 | 0.238 |
| Cc1cccc(C)c1OC1CN(Cc2cnc(N3CCCC3)nc2)C1 | 27.2 |
| CO[C@H]1COC[C@@H]1NC(=O)C1(Oc2ccc(Cl)cc2)CCNCC1 | -6.36 |
| COCCN1CCC(C(=O)N(C)Cc2cccc(Cl)c2)C1 (configuration not stated) | 32 |
| O=C(c1ccc2nccn2c1)N(CCO)Cc1ccccc1F | 3.35 |
| COCCCN1CCC(CNc2nccc(-c3cnn(C)c3)n2)C1 (configuration not stated) | -6.55 |
| CCOCc1nc2c(c(N3CC=CC3)n1)CCN(CC1CC1)CC2 | 9.81 |
| Cc1ccc2oc(CN3CCn4nc(CCC(=O)O)cc4C3)c(C)c2c1 | 32 |
| COc1cccc2c1OCC(C(=O)NCCc1nnc(N)s1)C2 (configuration not stated) | -5.75 |
| CCc1cc(N2CCC(N3CCSCC3)CC2)n2nccc2n1 | -7.5 |
| CCc1ccc(CCNc2ncnc3c2CCN(C(=O)C2CC2)C3)cc1 | 7.48 |
| Cc1cnc(C)c(N2C[C@H]3OC(=O)N(C4CCCC4)[C@H]3C2)n1 | -6.45 |
| CCCN1CCN(S(=O)(=O)c2ccccc2OC)[C@H]2CS(=O)(=O)C[C@H]21 | -16.5 |
| CN(C)CCNC(=O)c1ccc(S(=O)(=O)N[C@@H]2CCNC2)cc1 | -13.7 |
| CC(C)Cc1nc(CN2CCC3(CCCO3)CCC2=O)no1 (configuration not stated) | 0.922 |
| COc1ccccc1OC1CCN(C(=O)c2cccc(O)c2C)CC1 | -4.78 |
| CCC(CC)CN(C)Cc1nc(-c2ccccc2NS(C)(=O)=O)oc1C | -5.33 |
| CC(CCn1cccn1)N1CCC(n2cc(C(C)(C)N)nn2)CC1 (configuration not stated) | 1.2 |
| COCCN1CCN(c2nc(C3CCCC3)nc3c2cnn3C)CC1 | -16.1 |
| O=C1NCCCC12CCN(S(=O)(=O)N1CCOCC1)C2 (configuration not stated) | -6.49 |
| CN(C)Cc1ccccc1CN(C)C(=O)c1ccoc1 | -8.04 |
| Cc1ccc(N2CCN(C3CCc4ccccc4C3)CC2)nn1 (configuration not stated) | -8.25 |

| Structure (SMILES) | cytotoxicity at 70.5 h [%] |
| --- | --- |
| Cc1nn(C)c2ncnc(N3CCCC(OCc4cccnc4)C3)c12 (configuration not stated) | -3.45 |
| CCc1cnc(C)nc1NCc1cnc2c(c1)CCC2 | -9.06 |
| CC(C)c1cc(NCC2(Cn3cccn3)CC2)n2nccc2n1 | 5.08 |
| CCS(=O)(=O)c1ncc(CN2CCN(C)CC2)n1CCc1ccccc1 | -3.88 |
| CCC(c1nc(CC(C)C)nn1-c1ccccn1)n1cccn1 (configuration not stated) | -12.3 |
| CC(=O)c1cc(CC(=O)NCc2cccc(F)c2F)cs1 | -8.12 |
| Cc1nc(N(C)C)nc(N(C)Cc2cnccn2)c1C | -9.41 |
| Cn1c(CN2CCCC2)nnc1C1CCCN(C(=O)N2CCOCC2)C1 (configuration not stated) | -3.17 |
| CCS(=O)(=O)N1CCC(c2nccn2Cc2ccccn2)CC1 | -5.3 |
| CC(C)NS(=O)(=O)c1cc(C(=O)O)cc(-c2ccccc2C#N)c1 | 6.18 |
| Cc1ccc(C)c2c(O)cc(CN[C@H]3CCCCNC3=O)nc12 | -6.91 |
| O=C(NC1CC(=O)N(C2Cc3ccccc3C2)C1)c1ccoc1 (configuration not stated) | -2.92 |
| CC(C)OC(=O)N1CCCCC1CCn1cccn1 (configuration not stated) | -7.8 |
| CCc1nc(NC(=O)NCCc2scnc2C)nn1C | 16.5 |
| Cc1cc(C)n(C2CCN(Cc3c(-c4cc(C)on4)nn(C)c3Cl)C2)n1 (configuration not stated) | -6.11 |
| CCS(=O)(=O)N1C[C@@H](OCc2ccccn2)[C@@H]2OCCC[C@@H]21 | -9.16 |
| Cc1ccc(C(=O)N2CCn3c(COCC4CC4)cnc3C2C)nc1 (configuration not stated) | -8.57 |
| O=C(C1CC=CC1)N1C[C@@H](OCc2cccnc2)[C@H]2OCCC[C@H]21 | 11.2 |
| O=C(N1CCCC1)N1C[C@@H](OCc2cccnc2)[C@H]2OCCC[C@H]21 | 12.7 |
| Cc1nc(CN2CCO[C@@H]3CN(C(=O)CC4CC4)C[C@@H]3C2)cs1 | -1.45 |
| CN(C)CCNC(=O)c1ccn(-c2ccc3ccccn23)n1 | -6.93 |
| O=C(NCCN1CCOCC1)c1ccn(-c2ccc3ccccn23)n1 | -1.69 |

| Structure (SMILES) | cytotoxicity at 70.5 h [%] |
| --- | --- |
| COCCN1CCc2c(cnc(-c3ccoc3)c2C(=O)O)C1 | -12.1 |
| Cc1ccc(C(=O)N2CCC3(CC2)COC(COc2cccnc2)C3)o1 (configuration not stated) | -7.65 |
| c1cc(CN2CCc3c(nnn3CC3CC3)C2COCC2CC2)co1 (configuration not stated) | -14 |
| C1CC(CN2CCc3c(nnn3CC3CC3)C2COCC2CC2)C1 (configuration not stated) | -8.97 |
| O=C(c1ccco1)N1C[C@H]2CCCN(Cc3ccc(F)cc3)[C@H]2C1 | -9.54 |
| Cc1ccc(CN2CCC[C@@H]3CN(C(=O)c4ccco4)C[C@@H]32)s1 | -11 |
| Cn1cc(CN2CCCC23CCN(C(=O)c2cccs2)CC3)cn1 | -11.6 |
| Cc1ccc(CN2Cc3nnn(C)c3C(COCc3ccccc3)C2)o1 (configuration not stated) | -8.1 |
| Cc1ccc(CN2C[C@@H]3CCCO[C@@H]3[C@H](N(C)Cc3ccco3)C2)s1 | -11 |
| Cc1nc(CN2CCO[C@@H]3CN(Cc4ccccn4)CC[C@@H]3C2)cs1 | -6.11 |
| Cc1nc(CN2CCO[C@@H]3CN(Cc4ccsc4)C[C@@H]3C2)cs1 | 0.892 |
| COCC1c2nnn(CC3CC3)c2CCN1Cc1ccncc1 (configuration not stated) | -8.11 |
| O=C(c1cccnc1)N1CCC2(CC1)COC(COc1ccccn1)C2 (configuration not stated) | -11.7 |
| Cn1nnc2c1CCN(Cc1ccncc1)C2COCC1CC1 (configuration not stated) | -9.81 |
| Cc1ccc(CN2CCC3(CC2)NC(=O)CC3c2ccncc2)cc1C (configuration not stated) | -3.31 |
| O=C(c1ccco1)N1C[C@H]2CCCN(Cc3ccncc3)[C@H]2C1 | -3.44 |
| COCC1CC2(CCN(Cc3cccc(C#N)c3)CC2)CN1C(C)C (configuration not stated) | -4.89 |
| c1ccc(CN2CCc3nnc(COc4ccccn4)n3CC2)nc1 | 13.9 |
| CN(C)CCOCC1CN(Cc2cccs2)Cc2ccnn2C1 (configuration not stated) | -9.15 |
